Experimental data reported in patent US7696245B2, “Fluorescent probe for zinc” (Sekisui Medical Co., Ltd., priority 2003, dated 2010).

What was measured:
[1] = Rate constant of complex formation with zinc ions (stopped-flow); format: physicochemical; details: 1 μM compound, 50 μM zinc ions, 100 mM HEPES buffer (pH 7.4), 25° C.
Experimental: The rate constant of the formation of a complex between zinc ions and each of Compounds 8, 13, 17, and 22 were investigated. Changes with time of fluorescence intensity were measured in a stopped-flow manner after the compound was mixed in 100 mM HEPES buffer (pH 7.4) at 25° C. to adjust the final concentration of the compound to 1 μM and that of zinc ions to 50 μM. The rate constant of complex formation was calculated by using the graph to give 1.6×10^6 M^−1s^−1 for Compound 8, 1.4×10^6 M^−1s^−1 for Compound 13, 7.8×10^4 M^−1s^−1 for Compound 17, and 1.3×10^6 M^−1s^−1 for Compound 22. […] Therefore, it is understood that zinc ions can be detected in a very short period of time, and rapid changes in the concentration of zinc ions can also be detected by using these compounds.

[2] = read-out: Kd value for zinc ions; cited from earlier work
[3] = system: CHO cells; assay: Fluorescence intensity when zinc ions were intracellularly introduced into CHO cells; format: cell-based
Experimental: Changes in fluorescence intensity were investigated when zinc ions in various concentrations were intracellularly introduced by using CHO cells. […] After the cells were washed with PBS(−) 3 times, the reagent was added as shown in the following Table 1, and changes in fluorescence intensity were measured.

Structure (SMILES): Cc1cccc(CN(CCNc2ccc(C(=O)O)c(-c3c4ccc(=O)cc-4oc4cc(O)ccc34)c2)Cc2ccccn2)n1 [Compound 22]
- rate constant of complex formation [1]: 1.3e+06 M⁻¹ s⁻¹

Structure (SMILES): CC(=O)Oc1ccc2c(c1)Oc1cc(OC(C)=O)ccc1C21OC(=O)c2ccc(NCCN(Cc3ccccn3)Cc3ccccn3)cc21 [ZnAF-2DA, reference compound]
- Kd [2]: 2.7 nM
- zinc ion concentration at which fluorescence intensity reached the plateau ([3]; CHO cells dyed with 10 μM probe, 100 μM pyrithione plus ZnSO4): 3 µM

Structure (SMILES): CC(=O)Oc1ccc2c(c1)Oc1cc(OC(C)=O)ccc1C21OC(=O)c2ccc(NCCN(CCc3ccccn3)Cc3ccccn3)cc21 [Compound 28]
- change of fluorescence intensity of dyed cells with elevation of zinc ions introduced ([3]; CHO cells, 100 μM pyrithione, 0.3-300 μM ZnSO4): increased stepwise

Structure (SMILES): O=C(O)c1ccc(NCCNCc2ccccn2)cc1-c1c2ccc(=O)cc-2oc2cc(O)ccc12 [Compound 8]
- rate constant of complex formation [1]: 1.6e+06 M⁻¹ s⁻¹

Structure (SMILES): O=C(O)c1ccc(NCCN(CCc2ccccn2)CCc2ccccn2)cc1-c1c2ccc(=O)cc-2oc2cc(O)ccc12 [Compound 17]
- rate constant of complex formation [1]: 78000 M⁻¹ s⁻¹

Structure (SMILES): O=C(O)c1ccc(NCCN(CCc2ccccn2)Cc2ccccn2)cc1-c1c2ccc(=O)cc-2oc2cc(O)ccc12 [Compound 13]
- rate constant of complex formation [1]: 1.4e+06 M⁻¹ s⁻¹
